# Experimental data taken from US9365522B2, “Pyrazole amide derivative” (AMGEN INC., priority 2015, dated 2016).
# Molecular target: T1, ligand binding domain of human ROR gamma (Homo sapiens, UniProt P51449)
# T1 construct: NM_001001523; expressed in transfected cells; host or cells: HEK293T
# T1 sequence (P51449 247-497 isoform P51449-2): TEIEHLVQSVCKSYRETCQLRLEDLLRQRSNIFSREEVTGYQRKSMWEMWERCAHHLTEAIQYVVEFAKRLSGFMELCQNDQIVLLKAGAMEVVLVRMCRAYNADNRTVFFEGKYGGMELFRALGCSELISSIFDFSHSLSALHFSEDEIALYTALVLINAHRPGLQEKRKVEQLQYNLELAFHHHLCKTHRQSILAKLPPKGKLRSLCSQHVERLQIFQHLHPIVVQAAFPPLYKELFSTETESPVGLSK
# Assay: ROR gamma reporter gene assay (GAL4-RORγ LBD luciferase, Dual-Glo)
# Format: cell-based
# Conditions: HEK293T cells transfected with pM-ROR gamma, 8 concentrations 3.5 nM to 10.5 μM, 24 h incubation; read-out: result (pIC50, inhibition of RORγ transcriptional activity) (converted)
# Outline: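 First, HEK293T cells are transfected with the GAL4–RORγ LBD construct, a 5×UAS luciferase reporter and a constitutive renilla control. Next, test compounds are added over eight concentrations (3.5 nM to 10.5 μM). After 24 h at 37 °C, Dual-Glo luminescence is measured and pIC50 fitted.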
row,Structure (SMILES),IC50
1,"CC1(C)[C@@H]2C[C@H](N(CC(=O)c3c(Cl)cccc3OC(F)F)C(=O)c3cnn([C@H]4CC[C@](C)(C(=O)O)CC4)c3C(F)(F)F)C[C@@H]21 [Example 400, trans-4-(4-((2-(2-chloro-6-(difluoromethoxy)phenyl)-2-oxyethyl)((1R,3r,5S)-6,6-dimethylbicyclo[3.1.0]hexan-3-yl)carbamoyl)-5-(trifluoromethyl)-1H-pyrazol-1-yl)-1-methylcyclohexanecarboxylic acid]",28800 pM
2,CC1(C)[C@@H]2C[C@H](N(CC(O)c3ccccn3)C(=O)c3cnn([C@H]4CC[C@](C)(C(=O)O)CC4)c3C(F)(F)F)C[C@@H]21 (some centres unmarked) [Example 401],2.82e+06 pM
3,"CC1(C)[C@@H]2C[C@H](N(CC(=O)c3c(Cl)cccc3Cl)C(=O)c3cnn([C@H]4CC[C@](C)(C(=O)O)CC4)c3C3(F)CC3)C[C@@H]21 [Example 404, trans-4-(4-((2-(2,6-dichlorophenyl)-2-oxoethyl)((1R,3r,5S)-6,6-dimethylbicyclo[3.1.0]hexan-3-yl)carbamoyl)-5-(1-fluorocyclopropyl)-1H-pyrazol-1-yl)-1-methylcyclohexanecarboxylic acid]",22400 pM
4,"CC1(C)[C@@H]2C[C@H](N(CCn3cnc4cccc(Cl)c43)C(=O)c3cnn([C@H]4CC[C@](C)(C(=O)O)CC4)c3C(F)(F)F)C[C@@H]21 [Example 405, trans-4-(4-((2-(7-chloro-1H-benzo(d)imidazol-1-yl)ethyl)((1R,3r,5S)-6,6-dimethylbicyclo[3.1.0]hexan-3-yl)carbamoyl)-5-(trifluoromethyl)-1H-pyrazol-1-yl)-1-methylcyclohexanecarboxylic acid]",≥ 1.05e+07 pM
5,"CC(C)(C)CN(CC(=O)c1c(Cl)cccc1OC(F)F)C(=O)c1cnn([C@H]2CC[C@](C)(C(=O)O)CC2)c1C(F)(F)F [Example 406, trans-4-(4-((2-(2-chloro-6-(difluoromethoxy)phenyl)-2-oxoethyl)-(2,2-dimethylpropyl)carbamoyl)-5-(trifluoromethyl)pyrazol-1-yl)-1-methylcyclohexane-1-carboxylic acid]",50100 pM
6,"Cc1ncc(Cl)c(C(O)CN(C(=O)c2cnn([C@H]3CC[C@](C)(C(=O)O)CC3)c2C(F)(F)F)[C@H]2C[C@@H]3[C@H](C2)C3(C)C)n1 (stereo partly drawn) [Example 407, trans-4-(4-((2-(5-chloro-2-methylpyrimidin-4-yl)-2-hydroxyethyl)((1R,3r,5S)-6,6-dimethylbicyclo[3.1.0]hexan-3-yl)carbamoyl)-5-(trifluoromethyl)-1H-pyrazol-1-yl)-1-methylcyclohexanecarboxylic acid]",479000 pM
7,"CC1(C)[C@@H]2C[C@H](N(CC(O)c3ncncc3Cl)C(=O)c3cnn([C@H]4CC[C@](C)(C(=O)O)CC4)c3C(F)(F)F)C[C@@H]21 (stereo partly drawn) [Example 408, trans-4-(4-((2-(5-chloropyrimidin-4-yl)-2-hydroxyethyl)((1R,3r,5S)-6,6-dimethylbicyclo[3.1.0]hexan-3-yl)carbamoyl)-5-(trifluoromethyl)-1H-pyrazol-1-yl)-1-methylcyclohexanecarboxylic acid]",331000 pM
8,"CC1(C)[C@@H]2C[C@H](N(CC(N)c3c(F)cccc3Cl)C(=O)c3cnn([C@H]4CC[C@](C)(C(=O)O)CC4)c3C(F)(F)F)C[C@@H]21 (stereo partly drawn) [Example 409, trans-4-(4-((2-amino-2-(2-chloro-6-fluorophenyl)ethyl)((1R,3r,5S)-6,6-dimethylbicyclo[3.1.0]hexan-3-yl)carbamoyl)-5-(trifluoromethyl)-1H-pyrazol-1-yl)-1-methylcyclohexanecarboxylic acid]",776000 pM
